Laboratory results taken from paper PMC11521691, “Elucidating the antimicrobial and anticarcinogenic potential of methanolic and water extracts of edible Tragopogon coelesyriacus Boiss” (Food Science & Nutrition, 2024).

Legend:
[1] = test system: MCF10A (breast epithelial) cells; experiment: MTT cytotoxicity assay; format: cell-based, human; conditions: MCF10A normal cells
Procedure: (§1) This study included three epithelial cancerous (AR42J, pancreatic cancer; HeLa, cervical cancer, and MDA‐MB‐231 breast cancer) and two noncancerous epithelial human cells (ARPE‐19, retina; and MCF10A, breast). AR42J (ECACC, Cat No. 93100618) and MDA‐MB‐231 (ATCC, Cat No. HTB‐26) cells were cultured in RPMI media. HeLa cells (ATCC, Cat No. CCl‐2) were cultured in EMEM media. ARPE‐19 (ATCC, Cat No. CRL‐2302) and MCF10A (ATCC, Cat No. CRL‐10317) cells were cultured in DMEM. Each medium consisted of penicillin–streptomycin (1%) and fetal bovine serum (10%). Cells were cultured in a 37°C incubator with 5% CO2 humidification. Cells were cultured in 96‐well plates as 10.000 cells per well. After they reached at 80% confluency, cells were treated with extracts. For this, experiments for each cell included two groups, (1) treated with T. coelesyriacus extracts obtained by methanol for 24 h, 48 h, and 72 h at 3.125, 6.25, 12.5, 25, […], 100, and 200 μg/mL, and (2) treated with T. coelesyriacus extracts obtained by water for 24 h, 48 h, and 72 h at 3.125, 6.25, 12.5, 25, […], 100, and 200 μg/mL. Control wells for each cell were untreated (0 μg/mL). Positive control experiments were performed with cisplatin at the same concentrations with extracts (3.125–100 μg/mL) for 24 h, 48 h, and 72 h. For each dose at each concentration, at least three wells were used as intra‐experimental repeats. The whole experiments for each cell were repeated as two to three independent replications.
(§2) After treatment with different extracts (at 3.125, 6.25, 12.5, 25, 50, 100, and 200 μg/mL for 24 h, 48 h, and 72 h), media with extracts were removed, and the MTT protocol was applied as before (Cakmak et al., [2021]). MTT was also applied after cisplatin treatment for 24 h, 48 h, and 72 h. The concentrations of cisplatin used were 3.125, 6.25, 12.5, 25, 50, and 100 μg/mL. In this method, 200 μL of media, including 10 μL MTT (3‐(4,5‐dimethylthiazol‐2‐yl)‐2,5‐diphenyltetrazolium bromide), was added to each well and incubated at 37°C for 2.5 h. After incubation, media with MTT were removed, and 150 μL of DMSO was added to each well for dissolving formazan crystals. Subsequently, plates were incubated in the dark on a shaker for 1 h. Absorbances at 570 nm were read. Cell viabilities (as percentages) were calculated according to the viability of untreated cells considered as 100%. If applicable, IC50 values were calculated as before (Uzuner et al., [2021]).

[2] = test system: MDA‐MB‐231 (breast cancer) cells; experiment: MTT cytotoxicity assay; format: cell-based, human
Procedure: as §1, §2

[3] = test system: ARPE‐19 (retinal epithelial) cells; experiment: MTT cytotoxicity assay; format: cell-based, human; conditions: ARPE19 normal cells
Procedure: as §1, §2

[4] = test system: AR42J (pancreatic cancer) cells; experiment: MTT cytotoxicity assay; format: cell-based, human
Procedure: as §1, §2

[5] = test system: HeLa (cervical cancer) cells; experiment: MTT cytotoxicity assay; format: cell-based, human
Procedure: as §1, §2

HeLa cells = test system: HeLa cells; parameters: method as in Liu et al., 2008; conditions: 25 μg/mL for 72 h, ref Liu et al., 2008; cited from earlier work

N.N.[Cl][Pt][Cl] [cisplatin]
Ave IC50 values ([1]; 24 h): 33.56 µg/mL | Ave IC50 values ([1]; 48 h): 26.03 µg/mL | Ave IC50 values ([1]; 72 h): 8.32 µg/mL | Ave IC50 values ([2]; MDA‐MB‐231, 24 h): 41.28 µg/mL | Ave IC50 values ([2]; MDA‐MB‐231, 48 h): 27.87 µg/mL | IC50 value ([2]; MDA‐MB‐231, 72 h incubation): 10.92 µg/mL | Ave IC50 values ([3]; 24 h): 63.42 µg/mL | Ave IC50 values ([3]; 48 h): 54.14 µg/mL | Ave IC50 values ([3]; 72 h): 16.01 µg/mL | IC50 value ([4]; 24 h incubation): 18.94 µg/mL | IC50 value ([4]; 48 h incubation): 14.84 µg/mL | IC50 value ([4]; 72 h incubation): 6.18 µg/mL | Ave IC50 values ([5]; 24 h): 8.16 µg/mL | Ave IC50 values ([5]; 48 h): 13.92 µg/mL | IC50 value ([5]; 72 h incubation): 4.56 µg/mL | cell death (HeLa cells): ~90%
